Measured values from patent US12084403B2, “Linkers for antibody drug conjugates” (THE BOARD OF REGENTS OF THE UNIVERSITY OF TEXAS SYSTEM, priority 2017, dated 2024).
Starred links: 1 amine or outer side, 2 acyl side, 3 side chain; linkers in the order of their positions; H or OH if unused. Non-standard residues stand in square brackets, D forms with d. Residues, ends and D or L forms follow the SMILES beside them. *: point of attachment. EDDnp = O=[N+]([O-])c1ccc(NCCN*)c([N+](=O)[O-])c1; PABC = O=C(OCc1ccc(N[*:1])cc1)[*:2]; X1 = [N-]=[N+]=NCCOCCOCCOCC(=O)*; Cit = NC(=O)NCCC[C@H](N)C(=O)O; AEEEA = NCCOCCOCCOCC(=O)O

Legend:
[1] = biological target: human cathepsin B (Homo sapiens, UniProt P07858); assay: Cathepsin B-mediated cleavage of linear and branched probes in FRET assay; assay type: biochemical; conditions: for Slope (RFU/sec): quencher (EdDnp) release rate, linear regression, triplicate; for release of EdDnp in the presence of human cathepsin B: result in words
Experimental: FIG. 2. Quencher release rate determination in Förster resonance energy transfer (FRET) assay. Each slope reflecting drug (quencher) release rate was calculated by linear regression using Graph Pad Prism 7 software. […] All assays were performed in triplicate and error bars represent SEM.
These model linker units consisted of cathepsin B-cleavable valine-citrulline (Val-Cit) with or without polyethyleneglycol (PEG) spacers. This dipeptide sequence has been used in many successful ADCs including the FDA-approved ADC Adcetris® (Katz et al., 2011). The sequence is stable in circulation but in lysosomes undergoes cathepsin B-mediated cleavage, resulting in intracellular release of payload (Dubowchik et al., 2002). Tryptophan and 2,4-dinitrophenylethylenediamine (EdDnp) were installed as a fluorophore/quencher(s) pair, which is commonly used in the Förster resonance energy transfer (FRET) assay. The release of EdDnp from each synthetic model linker unit in the presence of human cathepsin B (Table 1 and Scheme 3) was assessed. […] Without wishing to be bound by any theory, it is surmised that the structural congestion of branched probe 3 due to the lack of PEG spacers prevents cathepsin B accessing Val-Cit moieties.

[2] = Plasma stability test using pyrene probes, BALB/c mouse plasma; assay type: in vitro ADME; conditions: undiluted BALB/c mouse plasma, 37° C., HPLC
Experimental: To test this hypothesis, a panel of peptide probes containing a various amino acid at the P3 position were evaluated for plasma stability at the small-molecule level (FIG. 13B). VCit- and tripeptide probes 12a-f were first synthesized by standard solid- and liquid-phase peptide synthesis and following carbamate formation. These model probes consisted of a XVCit-PABC unit where X is none (12a), serine (12b), glutamic acid (12c), aspartic acid (12d), lysine (12e), or hydroxyacetylglycine (12f). It was assumed that serine and hydroxyacetylglycine would serve as a mimic of the hydroxy-functionalized tripeptide ADC linker with increased mouse plasma stability reported by Dorywalska et al (Dorywalska et al., 2016). In particular, the 2-hydroxyacetamide group within probe 12f is the modifier that provided the greatest stability in their report. These linkers were covalently linked to 1-pyrenemethylamine, a surrogate of hydrophobic payloads with distinct UV absorbance at 341 nm (van Geel et al., 2015). Subsequently, probes 12a-f were incubated in undiluted BALB/c plasma at 37° C. and the amount of each probe was monitored by HPLC (FIG. 13C). […] Taking into account that all probes tested were stable in human plasma and no significant degradation was observed after 2 days (FIG. 14A), the accelerated degradation observed in KVCit probe 12e may indicate that a basic side chain at the P3 position provides an additional interaction with Ces1c leading to fast bond cleavage. […] Thus, the stabilizing effect of a neutral carbonyl group at the P3 position was not as significant as that of a negatively charged carboxylic acid side chain.
Plasma stability test using pyrene probes. Each test compound (10 mM in DMSO, 2 μL) was mixed with 1 μL of 1-pyrenemethylamine (10 mM in DMSO, as an internal standard) and incubated at 37° C. for 10 min. Pooled healthy human plasma or BALB/c mouse plasma (197 μL, Innovative Research) was added to the mixture, followed by incubation at 37° C. Aliquots (10 μL) were collected at each time point (0, 1, 6, 24, 48, and 96 h) and 40 μL of cold acetonitrile containing 1% formic acid was added to precipitate proteins. Supernatant of each sample was obtained and analyzed for quantification by analytical HPLC as described above. All assays were performed at least three times in technical duplicate, and data shown are representative of the replicates.

[3] = biological target: T1, Human liver cathepsin B (Homo sapiens, UniProt P07858); assay: Cathepsin B-mediated cleavage assay using pyrene probes; assay type: biochemical; conditions: 37° C., result in words
T1 construct: Human liver cathepsin B (20 ng/μL, 100 μL, EMD Millipore); purchased EMD Millipore; host or cells: human liver (tissue-derived, as the name says)
Experimental: Next, all probes were tested for responsiveness to human cathepsin B-mediated cleavage (FIG. 14B).
Cathepsin B-mediated cleavage assay using pyrene probes. Each test compound (10 mM in DMSO, 2 μL) was mixed with 97 μL of MES buffer (25 mM MES-Na, 1 mM DTT, pH 5.0) and 1 μL of 1-pyrenemethylamine (10 mM in DMSO, as an internal standard). The mixture was incubated at 37° C. for 10 min. Human liver cathepsin B (20 ng/μL, 100 μL, EMD Millipore) in MES buffer was added to the mixture, followed by incubation at 37° C. Aliquots (10 μL) were collected at each time point (0, 0.5, 1, 3, 24, and 48 h). Cold acetonitrile containing 1% formic acid (40 μL) was added to precipitate proteins. Precipitated proteins were separated by centrifugation (15,000 g, 4° C., 30 min) and supernatant of each sample was analyzed for quantification by analytical HPLC (UV absorption at 342 nm). The amount of each probe was normalized to the peak area of the internal standard. All assays were performed at least three times in technical duplicate, and data shown are representative of the replicates.

| Compound | Slope (RFU/sec) [1] [RFU/sec] | release of EdDnp in the presence of human cathepsin B [1] | t1/2 [2] [h] | human cathepsin B-mediated cleavage rate [3] |
| --- | --- | --- | --- | --- |
| CC(=O)N[C@@H](Cc1c[nH]c2ccccc12)C(=O)N[C@@H](CCCCNC(=O)COCCOCCOCCN=[N+]=[N-])C(=O)NCCOCCOCCOCC(=O)N[C@H](C(=O)N[C@@H](CCCNC(N)=O)C(=O)Nc1ccc(COC(=O)NCCNc2ccc([N+](=O)[O-])cc2[N+](=O)[O-])cc1)C(C)C [probe 2, Ac-Trp-Lys(-PEG3-N3)-PEG3-Val-Cit-PABC-EdDnp] (Ac-WK(X1)[AEEEA]V[Cit][PABC]-EDDnp) | 1.81 ± 0.07 | released EdDnp more efficiently than Linear PEG (−) 1 | – | – |
| CC(=O)N[C@@H](Cc1c[nH]c2ccccc12)C(=O)N[C@@H](CCCCn1cc(CCC(=O)N[C@H](C(=O)N[C@@H](CCCNC(N)=O)C(=O)Nc2ccc(COC(=O)NCCNc3ccc([N+](=O)[O-])cc3[N+](=O)[O-])cc2)C(C)C)nn1)C(=O)N[C@H](C(=O)N[C@@H](CCCNC(N)=O)C(=O)Nc1ccc(COC(=O)NCCNc2ccc([N+](=O)[O-])cc2[N+](=O)[O-])cc1)C(C)C [probe 3] | 0.03 ± 0.06 | marginal release of EdDnp | – | – |
| CC(=O)N[C@@H](Cc1c[nH]c2ccccc12)C(=O)N[C@@H](CCCCNC(=O)COCCOCCOCCn1cc(CCC(=O)N[C@H](C(=O)N[C@@H](CCCNC(N)=O)C(=O)Nc2ccc(COC(=O)NCCNc3ccc([N+](=O)[O-])cc3[N+](=O)[O-])cc2)C(C)C)nn1)C(=O)NCCOCCOCCOCC(=O)N[C@H](C(=O)N[C@@H](CCCNC(N)=O)C(=O)Nc1ccc(COC(=O)NCCNc2ccc([N+](=O)[O-])cc2[N+](=O)[O-])cc1)C(C)C [probe 4] | 1.56 ± 0.05 | comparable to that of linear PEG (+) probe 2 | – | – |
| Ac-Asp-Val-Cit-PABC-Sar-pyrene [probe 12d] | – | – | 14.0 | – |
| Ac-Glu-Val-Cit-PABC-Sar-pyrene [probe 12c] | – | – | 19.1 | – |
| Ac-Lys-Val-Cit-PABC-Sar-pyrene [probe 12e] | – | – | 0.9 | – |
| Ac-Ser-Val-Cit-PABC-Sar-pyrene [probe 12b] | – | – | 3.1 | comparable with that of VCit probe 12a |
| Ac-Val-Cit-PABC-Sar-pyrene [probe 12a] | – | – | 2.3 | – |
| HOCH2CO-Gly-Val-Cit-PABC-Sar-pyrene [probe 12f] | – | – | 5.0 | – |
